The test concerns HCV replicon (1b) cells. The test is described as follows: Cell-based HCV replicon assay (replicon RNA level by real time PCR, Taqman). The procedure: To measure cell-based anti-HCV activity of selected compounds of the present invention, replicon cells were seeded at 5000 cells/well in 96-well collagen I-coated Nunc plates in the presence of the test compound. Various concentrations of test compound, typically in 10 serial 2-fold dilutions, were added to the assay mixture, with the starting concentration ranging from 250 μM to 1 μM. The final concentration of dimethylsulfoxide was 0.5% fetal bovine serum was 5%, in the assay media. Cells were harvested on day 3 by the addition of 1× cell lysis buffer (Ambion cat #8721).
The replicon RNA level was measured using real time PCR (Taqman assay). The amplicon was located in 5B. The PCR primers were: 5B.2F, […] (SEQ ID. NO. 1); 5B.2R, […] (SEQ ID. NO. 2); the probe sequence was FAM-labeled […] (SEQ ID. NO. 3). GAPDH RNA was used as endogenous control and was amplified in the same reaction as NS5B (multiplex PCR) using primers and VIC-labeled probe recommended by the manufacturer (PE Applied Biosystem). The real-time RT-PCR reactions were run on ABI PRISM 7900HT Sequence Detection System using the following program: 48° C. for 30 minutes, 95° C. for 10 minutes, 40 cycles of 95° C. for 15 sec, 60° C. for 1 minute. The ΔCT values (CT5B-CTGAPDH) were plotted against the concentration of test compound and fitted to the sigmoid dose-response model using XLfit4 (MDL). […] Alternatively, to quantitate the absolute amount of replicon RNA, a standard curve was established by including serially diluted T7 transcripts of replicon RNA in the Taqman assay. All Taqman reagents were from […] Applied Biosystems. Such an assay procedure was described in detail in e.g. Malcolm et al., Antimicrobial Agents and Chemotherapy 50: 1013-1020 (2006).

[1] abbreviates: Hepatitis C virus, 72 h; read-out: 1b EC50.
Where [2] appears, read: read-out: 1b EC50; HCV replicon cells, harvested on day 3; EC50 = concentration giving ΔCT=1 over baseline.
[3] abbreviates: HCV replicon cells, harvested on day 3; EC50 = concentration giving ΔCT=1 over baseline; read-out: 1b EC50.

EC50 data for ten compounds are collected here from US9457039B2, “2′-disubstituted nucleoside derivatives and methods of use thereof for the treatment of viral diseases” (Merck Sharp & Dohme Corp., priority 2012, dated 2016).

The structures appear in SMILES notation. Read-outs that look alike come from different tables or passages of the source.

Regarding `C[C@@]1(N=[N+]=[N-])[C@H](O)[C@@H](CO)O[C@H]1c1cnc2c(N)ncnn12` [Compound 3], the EC50 under setting [1] is greater than 100 µM.

With `C[C@@]1(N=[N+]=[N-])[C@H](O)[C@@H](CO)O[C@H]1c1cnn2c(N)ncnc12` [Compound 4], the EC50 under setting [1] is greater than 100 µM.

Turning to `C[C@@]1(N)[C@H](O)[C@@H](CO)O[C@H]1c1cnc2c(N)ncnn12` [Compound 6], the EC50 under setting [1] is greater than 100 µM.

For the compound `C[C@@]1(N)[C@H](O)[C@@H](CO)O[C@H]1c1cnn2c(N)ncnc12` [Compound 7], the EC50 under setting [1] is greater than 100 µM.

Take `CC(C)OC(=O)[C@H](C)NP(=O)(OC[C@H]1O[C@@H](c2cnn3c(N)ncnc23)[C@](C)(N)[C@@H]1O)Oc1ccccc1` (stereo partly shown) [Compound 14]: the EC50 under setting [2] was greater than 100 µM.

On to `CC(C)OC(=O)[C@H](C)NP(=O)(OC[C@H]1O[C@@H](c2cnn3c(N)ncnc23)[C@](C)(N)[C@@H]1O)Oc1ccccc1` (stereo partly shown) [Compound 15], for which the EC50 under setting [2] amounted to 28 µM.

For the compound `CC(C)OP1(=O)OC[C@H]2O[C@@H](c3cnc4c(N)ncnn34)[C@](C)(N)[C@@H]2O1` (stereo partly shown) [Compound 18], the EC50 under setting [1] is greater than 100 µM.

Consider `CC(C)OP1(=O)OC[C@H]2O[C@@H](c3cnc4c(N)ncnn34)[C@](C)(N)[C@@H]2O1` (stereo partly shown) [Compound 19], for which the EC50 under setting [3] is greater than 100 µM.

Regarding `CC(C)OP1(=O)OC[C@H]2O[C@@H](c3cnn4c(N)ncnc34)[C@](C)(N)[C@@H]2O1` (stereo partly shown) [Compound 20], the EC50 under setting [1] was greater than 100 µM.

In the case of `CC(C)OP1(=O)OC[C@H]2O[C@@H](c3cnn4c(N)ncnc34)[C@](C)(N)[C@@H]2O1` (stereo partly shown) [Compound 21], the EC50 under setting [3] was greater than 100 µM.
